Measured values published in patent publication US11453683B1, “KRas G12D inhibitors” (Mirati Therapeutics, Inc., priority 2019, dated 2022).

test system: KRas G12D-mediated phosphorylation of ERK; assay: Inhibition of KRas G12D-mediated phosphorylation of ERK in AGS cells; assay type: cell-based; details: Homo sapiens; AGS cells expressing G12D, 3 hours, phospho-ERK normalized to GAPDH
Summary of the method: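 In-cell Western: p-ERK Thr202/Tyr204 signal over GAPDH, as % of DMSO control, with IC50 from a 4-parameter curve. AGS cells seeded 40,000/well for 12-14 h, exposed to compound 3 h at 0.5% DMSO final, then formaldehyde-fixed and methanol-permeabilized.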

SMILES	IC50
C#Cc1cccc2cc(O)cc(-c3ncc4c(N5C[C@H]6CC[C@@H](C5)N6)nc(OC[C@@]56CCCN5C[C@H](F)C6)nc4c3F)c12 [Example 243, 4-(4-((1R,5S)-3,8-diazabicyclo[3.2.1]octan-3-yl)-8-fluoro-2-(((2R,7aS)-2-fluorohexahydro-1H-pyrrolizin-7a-yl)methoxy)pyrido[4,3-d]pyrimidin-7-yl)-5-ethynylnaphthalen-2-ol]	0.8 nM
C#Cc1cccc2cc(O)cc(-c3ncc4c(N5C[C@H]6CC[C@@H](C5)N6)ncnc4c3F)c12 [Example 244, 4-(4-((1R,5S)-3,8-diazabicyclo[3.2.1]octan-3-yl)-8-fluoropyrido[4,3-d]pyrimidin-7-yl)-5-ethynylnaphthalen-2-ol]	763 nM
Oc1cc(-c2ncc3c(N4C[C@H]5CC[C@@H](C4)N5)nc(OCC45CCCN4CCC5)nc3c2F)c2c(Cl)c(F)ccc2c1 [Example 245, 4-(4-((1R,5S)-3,8-diazabicyclo[3.2.1]octan-3-yl)-8-fluoro-2-((hexahydro-1H-pyrrolizin-7a-yl)methoxy)pyrido[4,3-d]pyrimidin-7-yl)-5-chloro-6-fluoronaphthalen-2-ol]	23.4 nM
Oc1cc(-c2ncc3c(N4C[C@H]5CC[C@@H](C4)N5)nc(OC[C@@]45CCCN4C[C@H](F)C5)nc3c2F)c2c(F)c(F)ccc2c1 [Example 246, 4-(4-((1R,5S)-3,8-diazabicyclo[3.2.1]octan-3-yl)-8-fluoro-2-(((2R,7aS)-2-fluorohexahydro-1H-pyrrolizin-7a-yl)methoxy)pyrido[4,3-d]pyrimidin-7-yl)-5,6-difluoronaphthalen-2-ol]	1 nM
Fc1c(-c2cccc3cccc(CC(F)F)c23)ncc2c(N3C[C@H]4CC[C@@H](C3)N4)nc(OCC34CCCN3CCC4)nc12 [Example 247, 4-((1R,5S)-3,8-diazabicyclo[3.2.1]octan-3-yl)-7-(8-(2,2-difluoroethyl)naphthalen-1-yl)-8-fluoro-2-((hexahydro-1H-pyrrolizin-7a-yl)methoxy)pyrido[4,3-d]pyrimidine]	4310 nM
FCCc1cccc2cccc(-c3ncc4c(N5C[C@H]6CC[C@@H](C5)N6)nc(OCC56CCCN5CCC6)nc4c3F)c12 [Example 248, 4-((1R,5S)-3,8-diazabicyclo[3.2.1]octan-3-yl)-8-fluoro-7-(8-(2-fluoroethyl)naphthalen-1-yl)-2-((tetrahydro-1H-pyrrolizin-7a(5H)-yl)methoxy)pyrido[4,3-d]pyrimidine]	1080 nM
Cc1cc2[nH]ncc2c(-c2ncc3c(N4C[C@H]5CC[C@@H](C4)N5)nc(OCC45CCCN4CCC5)nc3c2F)c1C [Example 249, 4-((1R,5S)-3,8-diazabicyclo[3.2.1]octan-3-yl)-7-(5,6-dimethyl-1H-indazol-4-yl)-8-fluoro-2-((hexahydro-1H-pyrrolizin-7a-yl)methoxy)pyrido[4,3-d]pyrimidine]	7710 nM
Cc1cc2[nH]ccc2c(-c2ncc3c(N4C[C@H]5CC[C@@H](C4)N5)nc(OCC45CCCN4CCC5)nc3c2F)c1C [Example 250, 4-((1R,5S)-3,8-diazabicyclo[3.2.1]octan-3-yl)-7-(5,6-dimethyl-1H-indol-4-yl)-8-fluoro-2-((hexahydro-1H-pyrrolizin-7a-yl)methoxy)pyrido[4,3-d]pyrimidine]	7480 nM
Oc1cc(-c2ncc3c(N4C[C@H]5CC[C@@H](C4)N5)nc(OC[C@@]45CCCN4C[C@H](F)C5)nc3c2F)c2c(Cl)cccc2c1 [Example 251, 4-(4-((1R,5S)-3,8-diazabicyclo[3.2.1]octan-3-yl)-8-fluoro-2-(((2R,7aS)-2-fluorohexahydro-1H-pyrrolizin-7a-yl)methoxy)pyrido[4,3-d]pyrimidin-7-yl)-5-chloronaphthalen-2-ol]	10.3 nM
CCCc1cccc2cccc(-c3ncc4c(N5C[C@H]6CC[C@@H](C5)N6)nc(OCC56CCCN5CCC6)nc4c3F)c12 [Example 254, 4-((1R,5S)-3,8-diazabicyclo[3.2.1]octan-3-yl)-8-fluoro-2-((hexahydro-1H-pyrrolizin-7a-yl)methoxy)-7-(8-propylnaphthalen-1-yl)pyrido[4,3-d]pyrimidine]	2430 nM
FCCCc1cccc2cccc(-c3ncc4c(N5C[C@H]6CC[C@@H](C5)N6)nc(OCC56CCCN5CCC6)nc4c3F)c12 [Example 255, 4-((1R,5S)-3,8-diazabicyclo[3.2.1]octan-3-yl)-8-fluoro-7-(8-(3-fluoropropyl)naphthalen-1-yl)-2-((hexahydro-1H-pyrrolizin-7a-yl)methoxy)pyrido[4,3-d]pyrimidine]	673 nM
Cc1ccc(O)cc1-c1ncc2c(N3C[C@H]4CC[C@@H](C3)N4)nc(OCC34CCCN3CCC4)nc2c1F [Example 256, 3-(4-((1R,5S)-3,8-diazabicyclo[3.2.1]octan-3-yl)-8-fluoro-2-((hexahydro-1H-pyrrolizin-7a-yl)methoxy)pyrido[4,3-d]pyrimidin-7-yl)-4-methylphenol]	> 16700 nM
Fc1c(-c2c3ccccc3cc3[nH]ncc23)ncc2c(N3C[C@H]4CC[C@@H](C3)N4)nc(OCC34CCCN3CCC4)nc12 [Example 257, 4-(4-((1R,5S)-3,8-diazabicyclo[3.2.1]octan-3-yl)-8-fluoro-2-((hexahydro-1H-pyrrolizin-7a-yl)methoxy)pyrido[4,3-d]pyrimidin-7-yl)-1H-benzo[f]indazole]	531 nM
Fc1c(-c2c(OC(F)(F)F)ccc3[nH]ncc23)ncc2c(N3C[C@H]4CC[C@@H](C3)N4)nc(OCC34CCCN3CCC4)nc12 [Example 258, 4-((1R,5S)-3,8-diazabicyclo[3.2.1]octan-3-yl)-8-fluoro-2-((hexahydro-1H-pyrrolizin-7a-yl)methoxy)-7-(5-(trifluoromethoxy)-1H-indazol-4-yl)pyrido[4,3-d]pyrimidine]	1460 nM
CCc1cccc2cc(O)cc(-c3ncc4c(N5C[C@H]6CC[C@@H](C5)N6)nc(OC[C@@]56CCCN5C[C@H](F)C6)nc4c3F)c12 [Example 259, 4-(4-((1R,5S)-3,8-diazabicyclo[3.2.1]octan-3-yl)-8-fluoro-2-(((2R,7aS)-2-fluorotetrahydro-1H-pyrrolizin-7a(5H)-yl)methoxy)pyrido[4,3-d]pyrimidin-7-yl)-5-ethylnaphthalen-2-ol]	3.9 nM
CN1C[C@H](OC(=O)NCCOCc2ccc(O)cc2)C[C@H]1COc1nc(N2C[C@H]3CC[C@@H](C2)N3)c2cnc(-c3cccc4cccc(Cl)c34)c(F)c2n1 [Example 260, (3R,5S)-5-(((4-((1R,5S)-3,8-diazabicyclo[3.2.1]octan-3-yl)-7-(8-chloronaphthalen-1-yl)-8-fluoropyrido[4,3-d]pyrimidin-2-yl)oxy)methyl)-1-methylpyrrolidin-3-yl (2-((4-hydroxybenzyl)oxy)ethyl)carbamate]	> 16700 nM
CCc1ccc(O)cc1-c1ncc2c(N3C[C@H]4CC[C@@H](C3)N4)nc(OCC34CCCN3CCC4)nc2c1F [Example 263, 3-(4-((1R,5S)-3,8-diazabicyclo[3.2.1]octan-3-yl)-8-fluoro-2-((hexahydro-1H-pyrrolizin-7a-yl)methoxy)pyrido[4,3-d]pyrimidin-7-yl)-4-ethylphenol]	7640 nM
Cc1c(Cl)cccc1-c1ncc2c(N3C[C@H]4CC[C@@H](C3)N4)nc(OCC34CCCN3CCC4)nc2c1F [Example 274, 4-((1R,5S)-3,8-diazabicyclo[3.2.1]octan-3-yl)-7-(3-chloro-2-methylphenyl)-8-fluoro-2-((hexahydro-1H-pyrrolizin-7a-yl)methoxy)pyrido[4,3-d]pyrimidine]	4710 nM
Cc1cccc(-c2ncc3c(N4C[C@H]5CC[C@@H](C4)N5)nc(OCC45CCCN4CCC5)nc3c2F)c1C [Example 275, 4-((1R,5S)-3,8-diazabicyclo[3.2.1]octan-3-yl)-7-(2,3-dimethylphenyl)-8-fluoro-2-((hexahydro-1H-pyrrolizin-7a-yl)methoxy)pyrido[4,3-d]pyrimidine]	7060 nM
Cc1cccc(-c2ncc3c(N4C[C@H]5CC[C@@H](C4)N5)nc(OCC45CCCN4CCC5)nc3c2F)c1Cl [Example 276, 4-((1R,5S)-3,8-diazabicyclo[3.2.1]octan-3-yl)-7-(2-chloro-3-methylphenyl)-8-fluoro-2-((hexahydro-1H-pyrrolizin-7a-yl)methoxy)pyrido[4,3-d]pyrimidine]	3790 nM
Fc1c(-c2cccc(Cl)c2Cl)ncc2c(N3C[C@H]4CC[C@@H](C3)N4)nc(OCC34CCCN3CCC4)nc12 [Example 277, 4-((1R,5S)-3,8-diazabicyclo[3.2.1]octan-3-yl)-7-(2,3-dichlorophenyl)-8-fluoro-2-((hexahydro-1H-pyrrolizin-7a-yl)methoxy)pyrido[4,3-d]pyrimidine]	3680 nM
C#CCc1ccc(O)cc1-c1ncc2c(N3C[C@H]4CC[C@@H](C3)N4)nc(OCC34CCCN3CCC4)nc2c1F [Example 279, 3-(4-((1R,5S)-3,8-diazabicyclo[3.2.1]octan-3-yl)-8-fluoro-2-((hexahydro-1H-pyrrolizin-7a-yl)methoxy)pyrido[4,3-d]pyrimidin-7-yl)-4-(prop-2-yn-1-yl)phenol]	7400 nM
COCCNC(=O)O[C@@H]1C[C@@H](COc2nc(N3C[C@H]4CC[C@@H](C3)N4)c3cnc(-c4cccc5cccc(Cl)c45)c(F)c3n2)N(C)C1 [Example 280, (3R,5S)-5-(((4-((1R,5S)-3,8-diazabicyclo[3.2.1]octan-3-yl)-7-(8-chloronaphthalen-1-yl)-8-fluoropyrido[4,3-d]pyrimidin-2-yl)oxy)methyl)-1-methylpyrrolidin-3-yl (2-methoxyethyl)carbamate]	6120 nM
C#Cc1c(F)ccc2cccc(-c3ncc4c(N5C[C@H]6CC[C@@H](C5)N6)nc(OC[C@@]56CCCN5C[C@H](F)C6)nc4c3F)c12 [Example 281, 4-((1R,5S)-3,8-diazabicyclo[3.2.1]octan-3-yl)-7-(8-ethynyl-7-fluoronaphthalen-1-yl)-8-fluoro-2-(((2R,7aS)-2-fluorohexahydro-1H-pyrrolizin-7a-yl)methoxy)pyrido[4,3-d]pyrimidine]	97.8 nM
